Each compound was assayed against 5-hydroxytryptamine receptor 2A (Homo sapiens) (UniProt P28223). Conditions: Compound concentration 10 µM.
Chain of 5-hydroxytryptamine receptor 2A (Homo sapiens) (P28223 whole entry): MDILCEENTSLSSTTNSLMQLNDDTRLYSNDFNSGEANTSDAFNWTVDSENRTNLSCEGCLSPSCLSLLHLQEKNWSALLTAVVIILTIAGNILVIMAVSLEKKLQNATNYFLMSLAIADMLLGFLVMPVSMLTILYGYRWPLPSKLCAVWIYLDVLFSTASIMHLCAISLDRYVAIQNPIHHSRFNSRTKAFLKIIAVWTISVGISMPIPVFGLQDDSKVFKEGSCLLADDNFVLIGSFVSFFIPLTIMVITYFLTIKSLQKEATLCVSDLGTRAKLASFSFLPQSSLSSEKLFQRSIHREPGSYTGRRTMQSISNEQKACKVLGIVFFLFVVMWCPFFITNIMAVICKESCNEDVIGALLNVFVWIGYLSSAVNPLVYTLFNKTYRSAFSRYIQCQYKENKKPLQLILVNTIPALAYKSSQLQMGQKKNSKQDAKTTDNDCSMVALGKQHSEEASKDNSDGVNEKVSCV
Description: PDSP Primary Binding target: HTR2A - Compounds are tested at 10 uM concentration, plate are incubated at room temperature in the dark for 90 minutes. Reaction are stopped by vacuum filtration onto 0.3% polyethyleneimine soaked filter mats using Filtermate harvester. Scintilation cocktail is then melted onto microwave-dried filters on a hot plate and the radio activity is counted in Microbia counter.
`Nc1nc(NCCc2ccc(O)cc2)nc2nc(-c3ccco3)nn12` gave an inhibition of 17.1%. For `CNC[C@H](O)c1cccc(O)c1`, the inhibition was 25.3%. `Cc1cc(C(=O)N2Cc3cnn(C)c3Nc3ccccc32)ccc1CNC(=O)N1CCC[C@H]1C(=S)N1CCCN(C)CC1` showed an inhibition of 9.68%. For `COc1cc(-n2cnc3cc(-c4ccc(Cl)cc4)sc3c2=O)ccc1OCCN1CCCC1`, the inhibition was 32.9%. Work on `COc1ccc(C2(O)OC(=O)C(c3ccc4c(c3)OCO4)=C2Cc2cc(OC)c(OC)c(OC)c2)cc1` (stereo not drawn) yielded an inhibition of 12.4%. Work on `CCN(CC)CCCCC1CCN(CC(=O)N2c3ccccc3C(=O)Nc3cccnc32)CC1` yielded an inhibition of 9.83%. Work on `O=C(Cc1ccccc1)Nc1nc2ccc(Cl)cc2c2nc(-c3ccco3)nn12` yielded an inhibition of 16.8%. For `COc1ccc(NS(=O)(=O)c2sc3ccc(Cl)cc3c2C)cc1N1CCNCC1`, the inhibition was 37.4%. `O=c1ccn([C@@H]2O[C@H](COP(=O)(O)OP(=O)(O)O)[C@@H](O)[C@H]2O)c(=O)[nH]1` was tested, and the inhibition was 10.7%. For `Cc1cc(C)cc(C(=O)N(C)[C@H](Cc2ccc(-c3ccccc3)cc2)C(=O)N[C@@H](Cc2c[nH]c3ccccc23)C(=O)O)c1`, the inhibition was 31.2%. `N#Cc1cccc(C(=O)Nc2cc(-c3ccccc3)nn2-c2ccccc2)c1` was tested, and the inhibition was 6.53%. With `CN(C(=O)Cc1ccc(Cl)c(Cl)c1)C(CN1CCCC1)c1cccc(OCC(=O)O)c1` (stereo not drawn) the inhibition was 42.8%. Compound `CC(C)NCC(O)COc1ccc(CCOCC2CC2)cc1` (stereo not drawn) has an inhibition of 8.23%. `S=C(NCCCc1c[nH]cn1)NCCCN(Cc1ccc(Cl)c(Cl)c1)c1ccc(Br)cn1` showed an inhibition of 85.2%. Compound `CN1C(=O)[C@@H](NC(=O)c2cc3ccccc3[nH]2)N=C(c2ccccc2)c2ccccc21` has an inhibition of 19.7%. With `NC[C@@H]1O[C@H](C23CC4CC(CC(C4)C2)C3)Cc2c1ccc(O)c2O` the inhibition was 3.87%. For `Cc1csc2c(N[C@@H](C)CN3CCN(S(=O)(=O)c4ccc(Cl)c(Cl)c4)CC3)ncnc12`, the inhibition was 31%. `CCCCN(CC)c1nc(C)nc2c1c(C)cn2-c1c(C)cc(C)cc1C` showed an inhibition of 9.7%. In the case of `COc1ccc(S(=O)(=O)c2cc(OC)ccc2S(=O)(=O)c2ccc([C@H](C)NS(C)(=O)=O)cc2)cc1`, the inhibition is reported as 31.9%. With `OC1(c2ccc(Cl)cc2)CCN(Cc2c[nH]c3ccccc23)CC1` the inhibition was 66.9%. With `CCc1cc2c(c(CC)n1)CCC(=O)N2Cc1ccc(-c2ccccc2-c2nnn[nH]2)cc1` the inhibition was 29.2%. Work on `Cc1c(OCc2cccc(-c3ccc(C(=O)O)cc3)c2)cc2c(c1C)C(=O)C(C1CCCC1)C2` (stereo not drawn) yielded an inhibition of 6.01%. `CCCCC#Cc1nc(NC)c2ncn([C@@H]3O[C@H](CO)[C@@H](O)[C@H]3O)c2n1` gave an inhibition of 92.5%. Compound `COc1ccccc1CN[C@H]1C2CCN(CC2)[C@H]1C(c1ccccc1)c1ccccc1` has an inhibition of 13.4%. `Cc1nc(C(=O)N2CCC[C@H]2Cc2nnc(-c3ccccc3)o2)c(-c2ccccc2F)s1` showed an inhibition of 8.26%. For `O=C(c1cc2c(cc1F)OC(c1ccc(F)cc1)(c1ccc(Cl)cc1Cl)O2)N1CCOCC1` (stereo not drawn), the inhibition was 57.3%. `Cc1ccccc1C(=O)Nc1ccc(C(=O)N2CCCC(O)c3cc(Cl)ccc32)c(C)c1` (stereo not drawn) was tested, and the inhibition was 12.9%. In the case of `C[C@@H](NCCCc1cccc(C(F)(F)F)c1)c1cccc2ccccc12`, the inhibition is reported as 80.6%. `CCOC(=O)c1c(C)[nH]c2ccc3c(c12)CN1CCc2cc(OC)ccc2C1O3` (stereo not drawn) was tested, and the inhibition was 28.7%. In the case of `CN1CC(=O)N=C1NC(=O)Nc1cccc(Cl)c1`, the inhibition is reported as 1.19%. `C=CCN1C[C@H](C)N([C@H](c2ccc(C(=O)N(CC)CC)cc2)c2cccc(O)c2)C[C@H]1C` showed an inhibition of 2.09%. `Oc1ccc2c3c1O[C@H]1c4[nH]c5c(c4C[C@@]4(O)[C@@H](C2)N(CC2CC2)CC[C@]314)C[C@@]1(O)[C@H]2Cc3ccc(O)c4c3[C@@]1(CCN2CC1CC1)[C@H]5O4` showed an inhibition of 18.3%. `CN1C2CCC1CC(OC(c1ccc(F)cc1)c1ccc(F)cc1)C2` (stereo not drawn) showed an inhibition of 99.6%. In the case of `C[C@H](CO)Nc1nc(SCc2cccc(Cl)c2F)nc2[nH]c(=O)sc12`, the inhibition is reported as 7.55%. `COc1cc2c(CCNC(C)=O)c[nH]c2cc1Cl` gave an inhibition of -6.6%. With `C[C@@H](N)Cc1c[nH]cn1` the inhibition was -2.41%. `COc1ccc(S(=O)(=O)N2c3ccc(Cl)cc3[C@](O)(c3ccccc3Cl)[C@@H]2C(=O)N2CCC[C@H]2C(N)=O)cc1OC` showed an inhibition of -2.13%. `N=C(N)SCCc1c[nH]cn1` showed an inhibition of -6.33%. Work on `Cc1cccc([C@H](C)c2c[nH]cn2)c1C` yielded an inhibition of 26.8%. `Clc1cccc(COc2cncc(N3CCNCC3)n2)c1` showed an inhibition of 99%. In the case of `Nc1nc2c(c(N3CCNCC3)n1)CCC1=C2[C@@H]2CCCC[C@@H]2O1`, the inhibition is reported as 50.6%. For `O=C(Cc1ccc(Cl)c(Cl)c1)N1CCCC[C@H]1CN1CCCC1`, the inhibition was 6.03%. In the case of `c1ccc(N2CCN(Cc3nc4ccccc4[nH]3)CC2)nc1`, the inhibition is reported as 6.02%. With `COc1cccc([C@@H](C)NCCCc2ccccc2Cl)c1` the inhibition was 91.1%. In the case of `N#Cc1ccc2[nH]cc(CCCCN3CCN(c4ccc5oc(C(N)=O)cc5c4)CC3)c2c1`, the inhibition is reported as 43%. For `CC(C)C[C@H](NC(=O)N1CCCCCC1)C(=O)N[C@H](Cc1cn(C)c2ccccc12)C(=O)N[C@H](Cc1ccccn1)C(=O)O`, the inhibition was -0.06%. Work on `COC(=O)C1=C(C)NC(C)=C(C(=O)OCCCN2CCC(c3ccccc3)(c3ccccc3)CC2)[C@H]1c1cccc([N+](=O)[O-])c1` yielded an inhibition of -1.08%. For `CCCCCNC(=N)N/N=C/c1c[nH]c2ccc(OC)cc12`, the inhibition was 93.7%. With `CCc1ccc(OCc2ccccc2C(=O)Nc2ccc3nc(C)cc(N)c3c2)cc1` the inhibition was 83.4%. `C[C@@H](NCCc1ccc(O)cc1)[C@@H](O)c1ccc(O)cc1` (relative stereo) was tested, and the inhibition was 5.36%. `N#Cc1c(N)nc(SCC(N)=O)c(C#N)c1-c1ccc(OCC2CC2)cc1` gave an inhibition of 28.7%. `CC(C)NCC(O)c1ccc(N)c(C#N)c1` (stereo not drawn) showed an inhibition of 9.46%. With `O=C(O)CC/C=C\C[C@@H]1CO[C@H](c2ccccc2Cl)O[C@@H]1c1ccccc1O` the inhibition was 3.61%. `CC(C)(N)C(=O)N[C@H](COCc1ccccc1)C(=O)N1CCC2(CC1)CN(S(C)(=O)=O)c1ccccc12` gave an inhibition of 6.83%. `O=C(Nc1ccc(Cl)cc1)Nc1cccc(-c2cccc(N3CCCC3)n2)c1` showed an inhibition of 11%. In the case of `CCc1cc(C(C)=O)c(O)cc1OCCCCCC(C)(C)c1nn[nH]n1`, the inhibition is reported as 12.7%. In the case of `COc1ccc(Br)cc1S(=O)(=O)NC(=O)/C=C/c1ccccc1Cc1ccc2ccccc2c1`, the inhibition is reported as 8.02%. Compound `CCCCN1CCC(COC(=O)c2cc(Cl)c(N)c3c2OCCO3)CC1` has an inhibition of 62.2%. `O=S1(=O)c2cccc3cccc(c23)N1CCCN1CCN(c2ccc(F)cc2)CC1` gave an inhibition of 103%. For `CC[C@@H]1CN2C(=O)N(C)c3nc(-c4ccccc4)[nH]c3C2=N1`, the inhibition was 53.6%. `Cc1cccc(NC(=O)N[C@@H]2N=C(c3ccccc3)c3ccccc3N(C)C2=O)c1` was tested, and the inhibition was 53.4%. In the case of `Cc1nc2sccn2c(=O)c1CCN1CCC(=C(c2ccc(F)cc2)c2ccc(F)cc2)CC1`, the inhibition is reported as 91%. `C[C@H](Cc1cc2c(c(C(N)=O)c1)N(CCCO)CC2)NCCOc1ccccc1OCC(F)(F)F` showed an inhibition of 36.2%. `COc1ccc(/C=C/CCCCOc2ccc(C(=O)c3cccc(C(=O)O)c3)cc2CCC(=O)O)cc1` showed an inhibition of 33.6%. `CSc1ccc(C(=O)N[C@@H]2CCCC[C@@H]2NC(=O)CNC(=O)c2cc(C(F)(F)F)ccc2NC(=O)NC(C)C)cc1` was tested, and the inhibition was 9.73%. `Cc1cc(NC(=O)Nc2ccc(N(C)C)cc2)c2cc(F)cc(F)c2n1` was tested, and the inhibition was 13%. Work on `C[C@H](NC[C@H](O)CP(=O)(O)CC1CCCCC1)c1ccc(Cl)c(Cl)c1` yielded an inhibition of -0.59%. `CCCCN(CCCC)C(=O)CN1C[C@@H](c2ccc3c(c2)OCO3)[C@H](C(=O)O)[C@H]1c1ccc(OC)cc1` showed an inhibition of 13.8%. `CCCSc1nc(N[C@@H]2C[C@H]2c2ccc(F)c(F)c2)c2nnn([C@@H]3C[C@H](OCCO)[C@@H](O)[C@H]3O)c2n1` was tested, and the inhibition was 10.9%. Work on `COc1ccc(OC(F)(F)F)cc1CN[C@H]1CCCN[C@H]1c1ccccc1` yielded an inhibition of 64.8%. With `Cc1nc(-c2ccc(-c3ccc(C(=O)N4CCc5cc6c(cc54)C4(CCN(C)CC4)CO6)cc3)c(C)c2)no1` the inhibition was 67.6%. Compound `C/C(=N\NC(=O)[C@@H]1C(=O)NC[C@H]1c1ccccc1)c1cccc(Br)c1` has an inhibition of 62.6%. Work on `CCCCCCCCCCCCCCCCOC[C@H](COP(=O)([O-])OCC[N+](C)(C)C)OC(C)=O` yielded an inhibition of 2.23%.

From ChEMBL document CHEMBL5442219
